{"source": "ChEMBL document CHEMBL1127166", "about": "“The analgesic effect of epibatidine and isomers” (1993)", "format_in_all_cases": "functional", "key": {"[1]": {"tested_on": "Mus musculus", "assay": "Tested for the maximum possible analgesic effect of epibatidine after 5 min in mouse tail-flick assay at subcutaneous dosage of 10 ug/kg"}, "[2]": {"tested_on": "Mus musculus", "assay": "Tested for the maximum possible analgesic effect along with naloxone (10 mg/kg) after 5 min at subcutaneous dosage of 10 ug/kg"}, "[3]": {"tested_on": "Mus musculus", "assay": "Tested for the maximum possible analgesic effect along with naloxone (10 mg/kg) after 15 min at subcutaneous dosage of 10 ug/kg"}, "[4]": {"tested_on": "Mus musculus", "assay": "Tested for the maximum possible analgesic effect along with saline after 5 min at subcutaneous dosage of 10 ug/kg"}, "[5]": {"tested_on": "Mus musculus", "assay": "Tested for the maximum possible analgesic effect along with saline after 15 min at subcutaneous dosage of 10 ug/kg"}, "[6]": {"tested_on": "Mus musculus", "assay": "Tested for the maximum possible analgesic effect along with naloxone (10 mg/kg) after 30 min at subcutaneous dosage of 10 ug/kg"}, "[7]": {"tested_on": "Mus musculus", "assay": "Tested for the analgesic effect in the mouse tail-flick assay at 5 min after subcutaneous injection at dosage of 5-50 ug/kg"}, "[8]": {"tested_on": "Mus musculus", "assay": "Tested for the maximum possible analgesic effect along with saline after 30 min at subcutaneous dosage of 10 ug/kg"}, "[9]": {"tested_on": "Mus musculus", "assay": "Tested for the maximum possible analgesic effect of epibatidine after 15 min in mouse tail-flick assay at subcutaneous dosage of 10 ug/kg"}, "[10]": {"tested_on": "Mus musculus", "assay": "Tested for the maximum possible analgesic effect of epibatidine after 30 min in mouse tail-flick assay at subcutaneous dosage of 10 ug/kg"}, "[11]": {"tested_on": "Mus musculus", "assay": "Tested for the maximum possible analgesic effect of epibatidine at 15 min in mouse tail-flick assay after subcutaneous dosage of 1000 ug/kg"}, "[12]": {"tested_on": "Mus musculus", "assay": "Tested for the maximum possible analgesic effect of epibatidine after 30 min in mouse tail-flick assay at subcutaneous dosage of 1000 ug/kg"}, "[13]": {"tested_on": "Mus musculus", "assay": "Tested for the analgesic effect in the mouse tail-flick assay at 5 min after subcutaneous injection at dosage of 1000 ug/kg", "details": "sc"}, "[14]": {"tested_on": "Mus musculus", "assay": "Tested for the maximum possible analgesic effect of epibatidine after 5 min in mouse tail-flick assay at subcutaneous dosage of 1000 ug/kg"}, "[15]": {"tested_on": "Mus musculus", "assay": "Tested for the maximum possible analgesic effect of epibatidine after 15 min in mouse tail-flick assay at subcutaneous dosage of 1000 ug/kg"}, "[16]": {"tested_on": "Mus musculus", "assay": "Tested for the analgesic effect in the mouse tail-flick assay at 5 min after subcutaneous injection at dosage of 50-1000 ug/kg", "details": "sc"}, "[17]": {"tested_on": "Mus musculus", "assay": "Tested for maximum possible of analgesic effect of epibatidine after 5 min in mouse tail-flick assay at subcutaneous dosage of 10 ug/kg"}, "[18]": {"tested_on": "Mus musculus", "assay": "Tested for the analgesic effect in the mouse tail-flick assay at 5 min after subcutaneous injection at dosage of 10-50 ug/kg", "details": "sc"}, "[19]": {"tested_on": "Mus musculus", "assay": "Tested for the maximum possible analgesic effect along with saline after 30 min at subcutaneous dosage of 10000 ug/kg"}, "[20]": {"tested_on": "Mus musculus", "assay": "Tested for the maximum possible analgesic effect along with naloxone (10 mg/kg) after 15 min at subcutaneous dosage of 10000 ug/kg"}, "[21]": {"tested_on": "Mus musculus", "assay": "Tested for the maximum possible analgesic effect along with naloxone (10 mg/kg) after 30 min at subcutaneous dosage of 10000 ug/kg"}, "[22]": {"tested_on": "Mus musculus", "assay": "Tested for the maximum possible analgesic effect along with saline after 5 min at subcutaneous dosage of 10000 ug/kg"}, "[23]": {"tested_on": "Mus musculus", "assay": "Tested for the maximum possible analgesic effect along with saline after 15 min at subcutaneous dosage of 10000 ug/kg"}, "[24]": {"tested_on": "Mus musculus", "assay": "Tested for the maximum possible analgesic effect along with saline after 30 min at subcutaneous dosage of 1000-10000 ug/kg"}, "[25]": {"tested_on": "Mus musculus", "assay": "Tested for the maximum possible analgesic effect along with naloxone (10 mg/kg) after 5 min at subcutaneous dosage of 10000 ug/kg"}}}
{"compound": "Clc1ccc(C2CC3CCC2N3)cn1", "note": "(stereo in doubt; d-1) [EPIBATIDINE]", "values": [{"measurement": "Max possible effect", "setting": "[1]", "result": 89, "unit": "%"}, {"measurement": "Max possible effect", "setting": "[2]", "result": 77, "unit": "%"}, {"measurement": "Max possible effect", "setting": "[3]", "result": 49, "unit": "%"}, {"measurement": "Max possible effect", "setting": "[4]", "result": 86, "unit": "%"}, {"measurement": "Max possible effect", "setting": "[5]", "result": 48, "unit": "%"}, {"measurement": "Max possible effect", "setting": "[6]", "result": 0, "unit": "%"}, {"measurement": "ED50", "setting": "[7]; Mus musculus, Tail, sc, 5 min, read-out: ED50", "result": 7, "unit": "µg/kg"}, {"measurement": "Max possible effect", "setting": "[8]", "result": 4, "unit": "%"}, {"measurement": "Max possible effect", "setting": "[9]", "result": 32, "unit": "%"}, {"measurement": "Max possible effect", "setting": "[10]", "result": 3, "unit": "%"}]}
{"compound": "CC(=O)N1C2CCC1C(c1ccc(Cl)nc1)C2", "note": "(configuration not stated)", "values": [{"measurement": "Max possible effect", "setting": "[11]", "result": 3, "unit": "%"}, {"measurement": "Max possible effect", "setting": "[12]", "result": 0, "unit": "%"}, {"measurement": "ED50", "setting": "[13]", "result": "> 1000", "unit": "µg/kg"}, {"measurement": "Max possible effect", "setting": "[14]", "result": 4, "unit": "%"}]}
{"compound": "Clc1ccc(C2CC3CCC2N3)cn1", "note": "(configuration not stated) [EPIBATIDINE]", "values": [{"measurement": "Max possible effect", "setting": "[15]", "result": 10, "unit": "%"}, {"measurement": "Max possible effect", "setting": "[12]", "result": 11, "unit": "%"}, {"measurement": "ED50", "setting": "[16]", "result": "> 1000", "unit": "µg/kg"}, {"measurement": "Max possible effect", "setting": "[14]", "result": 5, "unit": "%"}]}
{"compound": "Clc1ccc(C2CC3CCC2N3)cn1", "note": "(stereo in doubt; l-1) [EPIBATIDINE]", "values": [{"measurement": "Max possible effect", "setting": "[17]", "result": 58, "unit": "%"}, {"measurement": "ED50", "setting": "[7]", "result": 9, "unit": "µg/kg"}, {"measurement": "Max possible effect", "setting": "[9]", "result": 46, "unit": "%"}, {"measurement": "Max possible effect", "setting": "[10]", "result": 1, "unit": "%"}]}
{"compound": "CN1C2CCC1C(c1ccc(Cl)nc1)C2", "note": "(configuration not stated)", "values": [{"measurement": "Max possible effect", "setting": "[1]", "result": 64, "unit": "%"}, {"measurement": "ED50", "setting": "[18]", "result": 9, "unit": "µg/kg"}, {"measurement": "Max possible effect", "setting": "[9]", "result": 16, "unit": "%"}, {"measurement": "Max possible effect", "setting": "[10]", "result": 8, "unit": "%"}]}
{"compound": "CN1CC[C@]23c4c5ccc(O)c4O[C@H]2[C@@H](O)C=C[C@H]3[C@H]1C5.CN1CC[C@]23c4c5ccc(O)c4O[C@H]2[C@@H](O)C=C[C@H]3[C@H]1C5.O=S(=O)(O)O", "values": [{"measurement": "Max possible effect", "setting": "[19]", "result": 94, "unit": "%"}, {"measurement": "Max possible effect", "setting": "[20]", "result": 3, "unit": "%"}, {"measurement": "Max possible effect", "setting": "[21]", "result": 4, "unit": "%"}, {"measurement": "Max possible effect", "setting": "[22]", "result": 7, "unit": "%"}, {"measurement": "Max possible effect", "setting": "[23]", "result": 51, "unit": "%"}, {"measurement": "Max possible effect", "setting": "[24]", "result": 4524, "unit": "%"}, {"measurement": "Max possible effect", "setting": "[25]", "result": 0, "unit": "%"}]}
{"compound": "Clc1ccc(C2CC3CCC2N3)cn1", "note": "(racemic) [EPIBATIDINE]", "values": [{"measurement": "Max possible effect", "setting": "[1]", "result": 47, "unit": "%"}, {"measurement": "ED50", "setting": "[7]", "result": 10, "unit": "µg/kg"}, {"measurement": "Max possible effect", "setting": "[9]", "result": 23, "unit": "%"}, {"measurement": "Max possible effect", "setting": "[10]", "result": 5, "unit": "%"}]}
